Patent US9777070B2, “Anti-PTK7 antibody-drug conjugates” (Pfizer Inc., priority 2014, dated 2017)

Legend:
[1] = test system: Breast-64 (BR64) TNBC PDX; assay: In vivo efficacy, PDX tumor growth; set-up: species or system human tumor in NOD/SCID mice; conditions: 20 mg/kg
Description: (§1) The effects of anti-PTK7 antibody-drug conjugates were further evaluated on the in vivo growth of human tumor patient-derived xenografts (PDX). Primary tumor resection samples were procured from clinical sites following Institutional Review Board for the Protection of Human Subjects approval and in accordance with HIPAA regulations. Tumor fragments were stored and shipped in Hypothermasol (Biolife Solutions) on ice and were embedded in Matrigel (BD) containing a proprietary mix of growth factors and implanted subcutaneously into the mammary fatpad of female NOD/SCID mice within 24 hours of resection. Mice were monitored for health status daily and for tumor growth initially by visual inspection twice per week. Once the tumors were palpable, measurements of tumor volume began to track tumor growth and estimate cell doubling time. Tumor volume was estimated using the equation V=(A*B^2)/2 where A is the long axis and B is the short axis. When tumors reached a volume of 500 mm^3 to 1,500 mm^3, they were harvested for study and for re-transplant as a patient-derived xenograft (PDX). Depending on the line, mechanical and/or chemical dissociation can be used to separate the individual cells for passage. Live cells were inoculated into naïve animals with 10,000 to 50,000 cells per animals
(§2) For efficacy studies, tumors were harvested from passaging studies and cells were dissociated into single cell suspension. Preparations were counted for live cells using Trypan blue exclusion and 10,000 to 50,000 cells were inoculated per mouse in Matrigel. […] Tumor growth was initially followed by palpability with measurements beginning once tumor volumes reached about 30 mm^3. Studies were randomized based on tumor size once a cohort of tumor-bearing mice reached 140 mm^3 to 180 mm^3. Animals were dosed by intraperitoneal injection twice a week for two weeks (q4dx4). Study groups were followed until individual mice or entire group tumor measurements reached 1200 mm^3 when sacrifice was indicated in accordance with IACUC protocol. For selected dosing studies, pharmacokinetic submandibular bleeds were performed at 2 hours, 36 hours and 72 hours. A volume of 10 μL of blood was immediately pipetted into 90 μL of HBS-P (GE Healthcare). Samples were stored at −80° C. prior to analysis. For each tumor measurement the tumor volume±standard error of the mean (SEM) is provided. GT=Group Terminated due to large tumor size.
(§3) Animals were dosed every four days for four cycles (Q4Dx4) by intraperitoneal injection except the BR5 study which was by intravenous injection on the same schedule. Tumor measurements were recorded one or two times per week using digital calipers and tumor volume was estimated using the equation V=(A×B^2)/2 where A is the long axis and B is the short axis. Animal body weights were measured and recorded at least once a week. Study groups were followed until individual mice or entire group tumor measurements reached 1200 mm^3 at which point sacrifice was indicated in accordance with IACUC protocol. For the BR5 study, animals were sacrificed once tumor volume approached 15% of the body weight at staging in accordance with IACUC protocol.
(§4) Tumor growth inhibition (TGI) was calculated using the equation % TGI=[1−(mean tumor volume of treated)/(mean tumor volume of vehicle)]. TGI was calculated at the latest possible time point, which was typically the last measurement before the control group was discontinued as described above. Tumor regression was defined as a reduction in mean tumor volume after dosing. In cases where tumors regressed, Time To Progression (TTP) indicates the number of days between the first does and the time at which mean tumor volume increased from the previous measurement to a statistically significant degree.

[2] = test system: Breast-22 (BR22) TNBC PDX; assay: In vivo efficacy, PDX tumor growth; set-up: species or system human tumor in NOD/SCID mice
Description: as §1, §2, §3
as §4, with “TGI was calculated at the latest possible time point, which was typically the last measurement before the control group was discontinued as described above.” left out

[3] = test system: Breast-31 (BR31) TNBC PDX; assay: In vivo efficacy, PDX tumor growth; set-up: species or system human tumor in NOD/SCID mice
Description: as §1, §2, §3
as §4, with “TGI was calculated at the latest possible time point, which was typically the last measurement before the control group was discontinued as described above.” left out

BR13 TNBC breast tumors = assay: Tumor-initiating cell (TIC) frequency by limit dilution analysis after in vivo treatment; set-up: species or system human tumor in mice; conditions: for # Animals with tumors: 20 mpk
Description: To determine whether anti-PTK7 antibody-drug conjugate treatments reduced tumor-initiating cell (TIC) frequency in tumors, BR13 TNBC breast tumors were treated with 4 mg/kg hu24-vc0101 ADC, 4 mg/kg control IgG ADC, or 20 mg/kg docetaxel chemotherapy twice weekly for a total of 3 doses (Days 0, 3 & 7). Live, residual human tumor cells (i.e. hESA^+ mCD45^− mH-2Kd^−) were isolated from dissociated tumors at day 10 and re-implanted into naïve animals in a limit dilution analysis (LDA). Resulting tumor incidence was monitored for up to 40 weeks post-transplant. The day of tumor harvest (day 10) and serial transplantation was chosen based on when tumors were starting to regress following hu24-vc0101 exposure. Tumors were dissociated and stained with anti-human ESA, anti-mouse CD45, and anti-mouse H-2Kd antibodies. Three tumors per treatment group were pooled, and live human tumor cells were sorted by flow cytometry. Groups of 10 mice were injected with either 293, 73, 37 or 15 tumor cells sorted from control IgG ADC treated tumors; 159, 90, 40 or 10 tumor cells sorted from hu24-vc0101 treated tumors; or 257, 33 or 15 tumor cells sorted from docetaxel-treated tumors. Tumors in recipient mice were measured weekly and tumors that exceeded 200 mm^3 in recipient mice were scored as positive. Using Poisson distribution statistics, via L-Calc software (Stemcell Technologies, Vancouver, BC), injected cell doses of recipients with and without tumors by 40 weeks post-transplant were used to calculate the frequency of TIC after each treatment.

[4] = test system: non-small cell lung cancer-176 (LU176) PDX; assay: In vivo efficacy, PDX tumor growth; set-up: species or system human tumor in NOD/SCID mice; conditions: 5 mg/kg
Description: as §1, §2, §3, §4

[5] = test system: Breast-13 (BR13) triple-negative breast cancer (TNBC) PDX; assay: In vivo efficacy, PDX tumor growth; set-up: species or system human tumor in NOD/SCID mice; conditions: 1 mg/kg
Description: as §1, §2, §3, §4

[6] = test system: non-small cell lung cancer-135 (LU135) PDX; assay: In vivo efficacy, PDX tumor growth; set-up: species or system human tumor in NOD/SCID mice; conditions: 20 mg/kg
Description: as §1, §2, §3, §4

## CC(=O)O[C@@]12CO[C@@H]1C[C@H](O)[C@@]1(C)C(=O)[C@H](O)C3=C(C)[C@@H](OC(=O)[C@H](O)[C@@H](NC(=O)OC(C)(C)C)c4ccccc4)C[C@@](O)([C@@H](OC(=O)c4ccccc4)[C@H]21)C3(C)C [docetaxel, reference compound]
[1]; Day 0
  tumor volume ± SEM: 543 ± 46 mm^3
[1]; Day 7
  tumor volume ± SEM: 1112 ± 97 mm^3
[1]; Day 14
  tumor volume ± SEM: 1805 ± 206 mm^3
[2]; 20 mg/kg, Day 0
  tumor volume ± SEM: 182 ± 21 mm^3
[2]; 20 mg/kg, Day 7
  tumor volume ± SEM: 154 ± 23 mm^3
[2]; 20 mg/kg, Day 14
  tumor volume ± SEM: 107 ± 51 mm^3
[2]; 20 mg/kg, Day 21
  tumor volume ± SEM: 218 ± 98 mm^3
[2]; 20 mg/kg, Day 28
  tumor volume ± SEM: 418 ± 165 mm^3
[2]; 20 mg/kg, Day 35
  tumor volume ± SEM: 1191 ± 264 mm^3
[3]; 20 mg/kg, Day 0
  tumor volume ± SEM: 259 ± 47 mm^3
[3]; 20 mg/kg, Day 7
  tumor volume ± SEM: 331 ± 70 mm^3
[3]; 20 mg/kg, Day 14
  tumor volume ± SEM: 371 ± 82 mm^3
[3]; 20 mg/kg, Day 21
  tumor volume ± SEM: 451 ± 91 mm^3
[3]; 20 mg/kg, Day 28
  tumor volume ± SEM: 510 ± 103 mm^3
[3]; 20 mg/kg, Day 35
  tumor volume ± SEM: 614 ± 117 mm^3
[3]; 20 mg/kg, Day 42
  tumor volume ± SEM: 790 ± 117 mm^3
[3]; 20 mg/kg, Day 49
  tumor volume ± SEM: 837 ± 126 mm^3
[3]; 20 mg/kg, Day 63
  tumor volume ± SEM: 1131 ± 148 mm^3
[3]; 20 mg/kg, Day 70
  tumor volume ± SEM: 1317 ± 182 mm^3
BR13 TNBC breast tumors; BR13, 20 mg/kg, Days 0, 3 & 7, tumors harvested day 10, p=0.09
  TIC frequency, fold lower than in control IgG ADC treated tumors: 2.1 fold
BR13 TNBC breast tumors; Group C1, 257 cells implanted per animal, 9 animals in group
  # Animals with tumors: 8
BR13 TNBC breast tumors; Group C2, 33 cells implanted per animal, 8 animals in group
  # Animals with tumors: 1
BR13 TNBC breast tumors; Group C3, 15 cells implanted per animal, 6 animals in group
  # Animals with tumors: 0

## N.N.[Cl][Pt][Cl] [cisplatin, reference compound]
[4]; Day 0
  tumor volume ± SEM: 259 ± 26 mm^3
[4]; Day 7
  tumor volume ± SEM: 124 ± 30 mm^3
[4]; Day 14
  tumor volume ± SEM: 97 ± 22 mm^3
[4]; Day 21
  tumor volume ± SEM: 102 ± 24 mm^3
[4]; Day 28
  tumor volume ± SEM: 179 ± 71 mm^3
[4]; Day 35
  tumor volume ± SEM: 207 ± 69 mm^3
[4]; Day 42
  tumor volume ± SEM: 297 ± 97 mm^3
[4]; Day 49
  tumor volume ± SEM: 619 ± 262 mm^3

## COc1cccc2c1C(=O)c1c(O)c3c(c(O)c1C2=O)C[C@@](O)(C(=O)CO)C[C@@H]3O[C@H]1C[C@H](N)[C@H](O)[C@H](C)O1 [Doxorubicin, doxorubicin, reference compound]
[5]; Day 0
  tumor volume ± SEM: 156 ± 13 mm^3
[5]; Day 7
  tumor volume ± SEM: 219 ± 29 mm^3
[5]; Day 14
  tumor volume ± SEM: 295 ± 39 mm^3
[5]; Day 21
  tumor volume ± SEM: 353 ± 45 mm^3
[5]; Day 28
  tumor volume ± SEM: 432 ± 50 mm^3
[5]; Day 35
  tumor volume ± SEM: 696 ± 84 mm^3
[5]; Day 42
  tumor volume ± SEM: 1001 ± 159 mm^3
[2]; Day 0, 1.5 mg/kg
  tumor volume ± SEM: 297 ± 17 mm^3
[2]; Day 14, 1.5 mg/kg
  tumor volume ± SEM: 641 ± 39 mm^3
[3]; 1.5 mg/kg, Day 0
  tumor volume ± SEM: 160 ± 11 mm^3
[3]; 1.5 mg/kg, Day 7
  tumor volume ± SEM: 304 ± 20 mm^3
[3]; 1.5 mg/kg, Day 28
  tumor volume ± SEM: 759 ± 111 mm^3

## CC(=O)O[C@H]1C(=O)[C@@]2(C)[C@H]([C@H](OC(=O)c3ccccc3)[C@]3(O)C[C@H](OC(=O)[C@H](O)[C@@H](NC(=O)c4ccccc4)c4ccccc4)C(C)=C1C3(C)C)[C@]1(OC(C)=O)CO[C@@H]1C[C@@H]2O [paclitaxel, reference compound]
[6]; Day 0
  tumor volume ± SEM: 175 ± 24 mm^3
[6]; Day 7
  tumor volume ± SEM: 77 ± 13 mm^3
[6]; Day 14
  tumor volume ± SEM: 58 ± 12 mm^3
[6]; Day 21
  tumor volume ± SEM: 60 ± 11 mm^3
[6]; Day 28
  tumor volume ± SEM: 93 ± 20 mm^3
[6]; Day 35
  tumor volume ± SEM: 110 ± 31 mm^3
[6]; Day 42
  tumor volume ± SEM: 184 ± 48 mm^3
[6]; Day 49
  tumor volume ± SEM: 284 ± 78 mm^3
[6]; Day 56
  tumor volume ± SEM: 384 ± 106 mm^3
[6]; Day 63
  tumor volume ± SEM: 538 ± 178 mm^3
[6]; Day 70
  tumor volume ± SEM: 667 ± 174 mm^3
[6]; Day 77
  tumor volume ± SEM: 724 ± 171 mm^3
